Assay results from US12077503B2, “Substituted cyclic amides and their use as herbicides” (FMC CORPORATION, priority 2015, dated 2024).

Legend:
Format in all cases: in vivo
[1] = test system: Kochia (Kochia scoparia); test: Test A preemergence; conditions: Preemergence; for Plant response rating, Kochia: 125 g ai/ha, visual injury after approximately 10 d, 0 to 100 scale where 0 is no effect and 100 is complete control; for Kochia plant response rating (0 to 100 scale, 0 is no effect, 100 is complete control): 500 g ai/ha, visual injury approx. 10 d
In short: (§1)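 In a loam soil and sand blend, planted seeds got a preemergence directed soil spray, and young plants at the one- to two-leaf stage, 2–10 cm high, got a postemergence application; ~10 d greenhouse hold; injury rated visually, 0 = none, 100 = complete control.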

[2] = test system: pigweed (Amaranthus retroflexus); test: Test A preemergence; conditions: Preemergence; for Plant response rating, Pigweed: 125 g ai/ha, visual injury after approximately 10 d, 0 to 100 scale where 0 is no effect and 100 is complete control; for Pigweed plant response rating (0 to 100 scale, 0 is no effect, 100 is complete control): 500 g ai/ha, visual injury approx. 10 d
[3] = test system: giant foxtail (Setaria faberii); test: Test A preemergence; conditions: Preemergence; for Plant response rating, Foxtail, Giant: 125 g ai/ha, visual injury after approximately 10 d, 0 to 100 scale where 0 is no effect and 100 is complete control; for Foxtail, Giant plant response rating (0 to 100 scale, 0 is no effect, 100 is complete control): 500 g ai/ha, visual injury approx. 10 d
In short: as §1

[4] = test system: ragweed (common ragweed, Ambrosia elatior); test: Test A preemergence; conditions: Preemergence; for Plant response rating, Ragweed: 125 g ai/ha, visual injury after approximately 10 d, 0 to 100 scale where 0 is no effect and 100 is complete control; for Ragweed plant response rating (0 to 100 scale, 0 is no effect, 100 is complete control): 500 g ai/ha, visual injury approx. 10 d
In short: as §1

[5] = test system: ryegrass, Italian (Italian ryegrass, Lolium multiflorum); test: Test A preemergence; conditions: Preemergence; for Plant response rating, Ryegrass, Italian: 125 g ai/ha, visual injury after approximately 10 d, 0 to 100 scale where 0 is no effect and 100 is complete control; for Ryegrass, Italian plant response rating (0 to 100 scale, 0 is no effect, 100 is complete control): 500 g ai/ha, visual injury approx. 10 d
In short: as §1

[6] = test system: barnyardgrass (Echinochloa crus-galli); test: Test A preemergence; conditions: Preemergence; for Plant response rating, Barnyardgrass: 125 g ai/ha, visual injury after approximately 10 d, 0 to 100 scale where 0 is no effect and 100 is complete control; for Barnyardgrass plant response rating (0 to 100 scale, 0 is no effect, 100 is complete control): 500 g ai/ha, visual injury approx. 10 d
In short: as §1

[7] = test system: wheat (Triticum aestivum); test: Test A postemergence; conditions: for Wheat plant response rating: 125 g ai/ha, postemergence, visual injury rating on 0 to 100 scale (0 no effect, 100 complete control), approx. 10 d; for Plant response rating, Wheat: Postemergence, 500 g ai/ha, 0 to 100 scale where 0 is no effect and 100 is complete control
In short: as §1

[8] = test system: Kochia (Kochia scoparia); test: Test A postemergence; conditions: for Kochia plant response rating: 125 g ai/ha, postemergence, visual injury rating on 0 to 100 scale (0 no effect, 100 complete control), approx. 10 d; for Plant response rating, Kochia: Postemergence, 500 g ai/ha, 0 to 100 scale where 0 is no effect and 100 is complete control
In short: as §1

[9] = test system: pigweed (Amaranthus retroflexus); test: Test A postemergence; conditions: for Pigweed plant response rating: 125 g ai/ha, postemergence, visual injury rating on 0 to 100 scale (0 no effect, 100 complete control), approx. 10 d; for Plant response rating, Pigweed: Postemergence, 500 g ai/ha, 0 to 100 scale where 0 is no effect and 100 is complete control
In short: as §1

[10] = test system: Galium (catchweed bedstraw, Galium aparine); test: Test A postemergence; conditions: for Galium plant response rating: 125 g ai/ha, postemergence, visual injury rating on 0 to 100 scale (0 no effect, 100 complete control), approx. 10 d; for Plant response rating, Galium: Postemergence, 500 g ai/ha, 0 to 100 scale where 0 is no effect and 100 is complete control
In short: as §1

[11] = test system: giant foxtail (Setaria faberii); test: Test A postemergence; conditions: for Foxtail, Giant plant response rating: 125 g ai/ha, postemergence, visual injury rating on 0 to 100 scale (0 no effect, 100 complete control), approx. 10 d; for Plant response rating, Foxtail, Giant: Postemergence, 500 g ai/ha, 0 to 100 scale where 0 is no effect and 100 is complete control
In short: as §1

[12] = test system: ragweed (common ragweed, Ambrosia elatior); test: Test A postemergence; conditions: for Ragweed plant response rating: 125 g ai/ha, postemergence, visual injury rating on 0 to 100 scale (0 no effect, 100 complete control), approx. 10 d; for Plant response rating, Ragweed: Postemergence, 500 g ai/ha, 0 to 100 scale where 0 is no effect and 100 is complete control
In short: as §1

[13] = test system: ryegrass, Italian (Italian ryegrass, Lolium multiflorum); test: Test A postemergence; conditions: for Ryegrass, Italian plant response rating: 125 g ai/ha, postemergence, visual injury rating on 0 to 100 scale (0 no effect, 100 complete control), approx. 10 d; for Plant response rating, Ryegrass, Italian: Postemergence, 500 g ai/ha, 0 to 100 scale where 0 is no effect and 100 is complete control
In short: as §1

[14] = test system: barnyardgrass (Echinochloa crus-galli); test: Test A postemergence; conditions: for Barnyardgrass plant response rating: 125 g ai/ha, postemergence, visual injury rating on 0 to 100 scale (0 no effect, 100 complete control), approx. 10 d; for Plant response rating, Barnyardgrass: Postemergence, 500 g ai/ha, 0 to 100 scale where 0 is no effect and 100 is complete control
In short: as §1

[15] = test system: corn (Zea mays); test: Test A postemergence; conditions: for Corn plant response rating: 125 g ai/ha, postemergence, visual injury rating on 0 to 100 scale (0 no effect, 100 complete control), approx. 10 d; for Plant response rating, Corn: Postemergence, 500 g ai/ha, 0 to 100 scale where 0 is no effect and 100 is complete control
In short: as §1

[16] = test system: blackgrass (Alopecurus myosuroides); test: Test A postemergence; conditions: for Blackgrass plant response rating: 125 g ai/ha, postemergence, visual injury rating on 0 to 100 scale (0 no effect, 100 complete control), approx. 10 d; for Plant response rating, Blackgrass: Postemergence, 500 g ai/ha, 0 to 100 scale where 0 is no effect and 100 is complete control
In short: as §1

[17] = test system: sedge, umbrella (small-flower umbrella sedge, Cyperus difformis); test: Test B flooded paddy test; conditions: Flood, 250 g ai/ha; 0 to 100 scale where 0 is no effect and 100 is complete control; 13 to 15 d
In short: (§2)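 Plants at 2-leaf stage flooded to 3 cm above soil, with compounds applied directly to paddy water and that depth maintained. Plants kept in greenhouse 13–15 d. Visual rating versus controls on a 0 (no effect) to 100 (complete control) scale.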

[18] = test system: rice (Oryra sativa); test: Test B flooded paddy test; conditions: Flood, 250 g ai/ha; 0 to 100 scale where 0 is no effect and 100 is complete control; 13 to 15 d
In short: as §2

[19] = test system: barnyardgrass (Echinochloa crus-galli); test: Test B flooded paddy test; conditions: Flood, 250 g ai/ha; 0 to 100 scale where 0 is no effect and 100 is complete control; 13 to 15 d
In short: as §2

[20] = test system: ducksalad (Heteranthera limosa); test: Test B flooded paddy test; conditions: Flood, 250 g ai/ha; 0 to 100 scale where 0 is no effect and 100 is complete control; 13 to 15 d
In short: as §2

SMILES	Plant response rating, Kochia [1]	Kochia plant response rating (0 to 100 scale, 0 is no effect, 100 is complete control) [1]	Plant response rating, Pigweed [2]	Pigweed plant response rating (0 to 100 scale, 0 is no effect, 100 is complete control) [2]	Plant response rating, Foxtail, Giant [3]	Foxtail, Giant plant response rating (0 to 100 scale, 0 is no effect, 100 is complete control) [3]	Plant response rating, Ragweed [4]	Ragweed plant response rating (0 to 100 scale, 0 is no effect, 100 is complete control) [4]	Plant response rating, Ryegrass, Italian [5]	Ryegrass, Italian plant response rating (0 to 100 scale, 0 is no effect, 100 is complete control) [5]	Plant response rating, Barnyardgrass [6]	Barnyardgrass plant response rating (0 to 100 scale, 0 is no effect, 100 is complete control) [6]	Wheat plant response rating [7]	Plant response rating, Wheat [7]	Kochia plant response rating [8]	Plant response rating, Kochia [8]	Pigweed plant response rating [9]	Plant response rating, Pigweed [9]	Galium plant response rating [10]	Plant response rating, Galium [10]	further results
O=C1NCC(c2cc(F)cc(C(F)(F)F)c2)C1C(=O)Nc1ccccc1F (stereo not drawn) [Compound 489]	20	50	0	40	90	90	30	30	30	20	90	90	30	70	0	40	0	20	0	40	Foxtail, Giant plant response rating [11]: 90; Plant response rating, Foxtail, Giant [11]: 90; Ragweed plant response rating [12]: 0; Plant response rating, Ragweed [12]: 30; Ryegrass, Italian plant response rating [13]: 30; Plant response rating, Ryegrass, Italian [13]: 50; Barnyardgrass plant response rating [14]: 90; Plant response rating, Barnyardgrass [14]: 90; Corn plant response rating [15]: 70; Plant response rating, Corn [15]: 80; Blackgrass plant response rating [16]: 50; Plant response rating, Blackgrass [16]: 70; Plant response rating, Sedge, Umbrella [17]: 0; Plant response rating, Rice [18]: 20; Plant response rating, Barnyardgrass [19]: 65; Plant response rating, Ducksalad [20]: 100
O=C1NCC(c2cc(F)cc(C(F)(F)F)c2)C1C(=O)Nc1ccc(F)cc1F (stereo not drawn) [Compound 490]	0	20	0	0	90	90	0	0	20	50	80	90	30	50	0	20	0	20	20	40	Foxtail, Giant plant response rating [11]: 80; Plant response rating, Foxtail, Giant [11]: 80; Ragweed plant response rating [12]: 0; Plant response rating, Ragweed [12]: 20; Ryegrass, Italian plant response rating [13]: 0; Plant response rating, Ryegrass, Italian [13]: 30; Barnyardgrass plant response rating [14]: 80; Plant response rating, Barnyardgrass [14]: 80; Corn plant response rating [15]: 80; Plant response rating, Corn [15]: 80; Blackgrass plant response rating [16]: 20; Plant response rating, Blackgrass [16]: 40; Plant response rating, Sedge, Umbrella [17]: 0; Plant response rating, Rice [18]: 30; Plant response rating, Barnyardgrass [19]: 50; Plant response rating, Ducksalad [20]: 85
